Here are results for five compounds from patent US20260297128A1, “PEPTOID COMPOSITIONS TARGETING RAS PROTEINS AND METHODS OF TREATMENT OF CANCER USING THE SAME” (University of Houston System, priority 2023, published 2026).

Non-standard residues stand in square brackets, D forms with d. Residues, ends and D or L forms follow the SMILES beside them. *: point of attachment. X2 = COc1ccc(CN(CC(=O)N(CCCOC(C)C)CC(=O)*)C(=O)CCC(=O)c2cccs2)cc1; N(4-MeOBn)Gly = COc1ccc(CNCC(=O)O)cc1; N((CH2)3OiPr)Gly = CC(C)OCCCNCC(=O)O; Stearoyl = CCCCCCCCCCCCCCCCCC(=O)*; Palmitoyl = CCCCCCCCCCCCCCCC(=O)*; Myristoyl = CCCCCCCCCCCCCC(=O)*; Gly(N-cHex) = O=C(O)CNC1CCCCC1; X1 = O=C(CCC(=O)*)c1cccs1; Nlys = NCCCCNCC(=O)O; Nme = COCCNCC(=O)O

Assay [1] has as its system H441 cells. The assay is described as follows: Cell viability, single and combination treatment with MEK/ERK inhibitors. The assay is classed as cell-based. The settings on record: Homo sapiens, NCI-H441; single treatment, 3 D incubation; heterozygous KRAS G12V. An excerpt:
Provided herein are pan-KRAS inhibitors that can enhance the sensitivity of heterozygous KRAS mutant cells to KRAS downstream inhibitors, thereby overcoming limitations in their use for cancer therapy. FIG. 11A is an illustration presenting that heterozygous KRAS mutant cells are resistant to the inhibition of KRAS downstream signaling while homozygous KRAS mutant cells are sensitive to such inhibition, therefore blocking wild type KRAS potentially re-sensitizes the heterozygous KRAS mutant cells to the inhibition of KRAS downstream signaling. Cell viability of H441 cells harboring heterozygous KRAS G12V were assessed in combination treatment with PKR1-C16. FIG. 11B is a graphical representation presenting the cell viability of H441 harboring heterozygous KRAS G12V with co-treatments of Trametinib (upper panel) and Ulixertinib with PKR1-C16 (lower panel). […] Concentration gradients of Trametinib and Ulixertinib were co-treated with 1, 3, 5, and 7 μM of PKR1-C16, respectively. […] Blocking WT KRAS enables the re-sensitization of heterozygous KRAS mutant cells to the inhibitors of KRAS downstream signaling.

Another assay concerns H2122 cells. Conditions: homozygous KRAS G12C (H2122) vs heterozygous KRAS G12C (H23); cited from earlier work.
The subject of assay [2] is H441 cells. The assay is described as follows: MTS cell viability assay. The assay is classed as cell-based. The settings on record: H441 (KRASG12V); vs PKR1. An excerpt:
Three cancer cell lines (H441, H358, and H1993) harboring KRAS G12V, KRAS G12C, and WT KRAS, respectively, were subjected to treatment with the fatty acid conjugated-PKR1. […] FIGS. 6A-6C are graphical representations of the effects of the fatty acid conjugated PKR1 derivatives on cell survival and proliferation of (A) H441, (B) H358, and (C) H1993 cell lines. FIG. 6D presents the IC50 values of fatty acid conjugated PKR1 derivatives in H441, H1993, and H358 cell lines. […] As KRAS is predominant in the membrane consisting of unsaturated fatty acids, conjugating unsaturated fatty acids to PKR1 can facilitate its anchoring onto the membrane, thereby improving efficacy.
To examine the capacity of PKR1 derivatives as broad-spectrum KRAS inhibitors, MTS assays were conducted in various types of cell lines representing different cancer types, KRAS mutations, and KRAS gene zygosity (Table 1). IC50 values for each cell line were obtained from the MTS assay with PKR1-C16 treatment.
On the technique in general: Tetrazolium dyes change colour on reduction, which living cells bring about.

Consider `CC(C)Nc1cc(-c2c[nH]c(C(=O)N[C@H](CO)c3cccc(Cl)c3)c2)c(Cl)cn1` [Ulixertinib, ulixertinib], for which the IC50 (as a rule, the point on the concentration scale where inhibition reaches its midpoint) in the assay on H441 cells [1] was found to be 17 µM. Besides, the “potency in H2122 compared with H23 cells” value with H2122 cells is on record as “higher potency in H2122 cells”.

For the compound `CCCCCCCCCCCCCCCC(=O)NCCCC[C@H](NC(=O)[C@H](C)NC(=O)CN(CCOC)C(=O)CN(CCCCN)C(=O)CN(CCCCN)C(=O)CN(C(=O)CN(CCCOC(C)C)C(=O)[C@H](CCCCNC(=O)CN(CCCOC(C)C)C(=O)CN(Cc1ccc(OC)cc1)C(=O)CCC(=O)c1cccs1)NC(=O)CN(CCCOC(C)C)C(=O)CN(Cc1ccc(OC)cc1)C(=O)CCC(=O)c1cccs1)C1CCCCC1)C(N)=O` [PKR1-C16] (X1-[N(4-MeOBn)Gly][N((CH2)3OiPr)Gly]K(X2)[N((CH2)3OiPr)Gly][Gly(N-cHex)][Nlys][Nlys][Nme]AK(Palmitoyl)-NH2), the increase in potency entry in the assay with H441 cells [2] is given as “over 25 fold”.

With `CC(=O)Nc1cccc(-n2c(=O)n(C3CC3)c(=O)c3c(Nc4ccc(I)cc4F)n(C)c(=O)c(C)c32)c1` [Trametinib, trametinib], the IC50 in the assay with H441 cells [1] was 10.4 µM. In the assay on H2122 cells, the “potency in H2122 compared with H23 cells” value is given as “higher potency in H2122 cells”. `CCCCCCCCCCCCCCCCCC(=O)NCCCC[C@H](NC(=O)[C@H](C)NC(=O)CN(CCOC)C(=O)CN(CCCCN)C(=O)CN(CCCCN)C(=O)CN(C(=O)CN(CCCOC(C)C)C(=O)[C@H](CCCCNC(=O)CN(CCCOC(C)C)C(=O)CN(Cc1ccc(OC)cc1)C(=O)CCC(=O)c1cccs1)NC(=O)CN(CCCOC(C)C)C(=O)CN(Cc1ccc(OC)cc1)C(=O)CCC(=O)c1cccs1)C1CCCCC1)C(N)=O` [PKR1-C18] (X1-[N(4-MeOBn)Gly][N((CH2)3OiPr)Gly]K(X2)[N((CH2)3OiPr)Gly][Gly(N-cHex)][Nlys][Nlys][Nme]AK(Stearoyl)-NH2): the increase in potency result in the assay with H441 cells [2] is “over 25 fold”.

As for `CCCCCCCCCCCCCC(=O)NCCCC[C@H](NC(=O)[C@H](C)NC(=O)CN(CCOC)C(=O)CN(CCCCN)C(=O)CN(CCCCN)C(=O)CN(C(=O)CN(CCCOC(C)C)C(=O)[C@H](CCCCNC(=O)CN(CCCOC(C)C)C(=O)CN(Cc1ccc(OC)cc1)C(=O)CCC(=O)c1cccs1)NC(=O)CN(CCCOC(C)C)C(=O)CN(Cc1ccc(OC)cc1)C(=O)CCC(=O)c1cccs1)C1CCCCC1)C(N)=O` [PKR1-C14] (X1-[N(4-MeOBn)Gly][N((CH2)3OiPr)Gly]K(X2)[N((CH2)3OiPr)Gly][Gly(N-cHex)][Nlys][Nlys][Nme]AK(Myristoyl)-NH2), in the assay on H441 cells [2], the increase in potency entry is given as “over 25 fold”.
